Experimental data published in US4250259A, “Microbiological production of ketones from C3 -C6 secondary alcohols” (priority 1979, dated 1981).
Read-outs that look alike come from different tables or passages of the source.

How the values were obtained:
[1] = tested on: secondary alcohol dehydrogenase (SADH), cell-free soluble extract; settings: Growth Substrate CH4
Procedure: (§1) To prepare the cell-free secondary alcohol dehydrogenase (SADH) system, the washed cells were disrupted with a Wave Energy Ultrasonic Oscillator, Model W201 (Wave Energy System, Inc., Newtown, Pa.) and centrifuged at 20,000×g. for 30 minutes. […] The enzyme activity was measured with a fluorescence spectrophotometer (Perkin Elmer, Model MPF 44A) by following the formation of reduced NAD (EX 340 nm, Em 460 nm). The formation of reduced NAD was also followed with an absorption spectrophotometer at 340 nm. The assay system (3 ml.) contained: potassium phosphate buffer pH 7.0; 150 μmol.; NAD 1 μmol.; a given amount of enzyme preparation; and secondary alcohol 10 μmol. The reaction was started by the addition of substrate. One unit of enzyme activity represents the reduction of one μmole NAD per minute. Protein concentrations were determined by the Lowry method (J. Biol. Chem., 193: 255-275 (1951)).
(§2) The experimental procedure for the tests reported in Table VIII were as follows: 1 mg protein of crude extract was added into a 0.5 ml. 0.05 M phosphate buffer (pH 7.0) in a 10-ml. vial. […] The reaction mixture was incubated at 30° C. on a water bath. A 3 μl sample was removed with a syringe at 15 min. of incubation and was assayed with g.l.c. Catalytic activity was also assayed by fluorescence spectrophotometry.

[2] = tested on: secondary alcohol dehydrogenase (SADH), cell-free soluble extract; settings: Growth Substrate CH4; remark: listed apart in the source
Procedure: as §1, §2

[3] = tested on: Pichia pastoris NRRL Y-55; settings: cell suspensions
Procedure: (§3) The cells were harvested during exponential growth by centrifugation at 12,000×g. for 15 min. The cell pellet was washed twice with 50 mM phosphate buffer, pH 7. The final pellet was resuspended in the same buffer. Cell suspensions of yeasts grown on ethanol, methylamine, and methylformate were prepared as described above using 0.4 v/v ethanol, 10 mM methylamine and 10 mM methylformate as the sole source of carbon and energy.
(§4) A 1 ml. aliquot of each washed cell suspension of yeasts grown on various carbon sources was put into 10 ml. vials at 40° C. […] The vials were then incubated at 30° C. on a rotary water bath shaker at 200 rpm. The product of oxidation of secondary alcohols was detected by gas chromatography retention time comparison and co-chromatography with authentic standard.

[4] = tested on: Hansenula anomala NRRL Y-336; settings: cell suspensions
Procedure: as §3, §4

[5] = tested on: Candida boidinii NRRL Y-2332; settings: cell suspensions
Procedure: as §3, §4

[6] = tested on: secondary alcohol dehydrogenase (SADH), cell-free soluble extract
Procedure: as §1, §2

[7] = tested on: secondary alcohol dehydrogenase (SADH), cell-free soluble extract; settings: Growth Substrate CH4; remark: listed apart in the source
Procedure: as §1, §2

[8] = tested on: secondary alcohol dehydrogenase, crude extracts; settings: 2-butanol as a substrate; extracts of methanol-grown yeast
Procedure: (§5) Cell suspensions (2 g. wet weight) of packed cells in 10 ml. of 50 mM sodium phosphate buffer, pH 7.0 at 4° C. were disrupted by sonication with a Megason ultrasonic disintegration. The sonicated cell suspensions were centrifuged for 15 minutes at 30,000×g. The supernantant liquid was termed the crude extracts.
(§6) Secondary alcohol dehydrogenase activity was measured spectrophotometrically at 340 nm with a NAD^+ as an electron acceptor. The reaction mixture, in a total 3.0 ml., contained 50 mM phosphate buffer, pH 8.0, 5 μmoles NAD^+, crude extracts, and substrate. The reactions were started by addition of 100 μl of 0.1 M substrate and the rate of NAD^+ reduction was measured. Protein concentration was determined by the method of Lowry et al.
(§7) Oxidation of secondary alcohols were also estimated spectrophotometrically by measuring the reduction of NAD^+. […] NRRL Y-11,328 Torulopsis sp.

[9] = tested on: secondary alcohol dehydrogenase (SADH), cell-free soluble extract; remark: listed apart in the source
Procedure: as §1, §2

[10] = tested on: secondary alcohol dehydrogenase (SADH), cell-free soluble extract; settings: Growth Substrate CH3 OH
Procedure: as §1, §2

[11] = tested on: secondary alcohol dehydrogenase (SADH), cell-free soluble extract; settings: Growth Substrate CH3 OH; remark: listed apart in the source
Procedure: as §1, §2

[12] = tested on: secondary alcohol dehydrogenase (SADH), cell-free soluble extract; settings: Growth Substrate CH3 OH; remark: listed apart in the source
Procedure: as §1, §2

[13] = tested on: secondary alcohol dehydrogenase (SADH), cell-free soluble extract; settings: Growth Substrate CH3 OH; remark: listed apart in the source
Procedure: as §1, §2

[14] = tested on: cell-free extracts of strain ATCC 21439; assay: stoichiometry of production of 2-butanone from 2-butanol by cell-free extracts (Table IX); assay type: biochemical, Pseudomonas sp. ATCC 21,439; settings: 30° C., 1.0 mg protein, 1.0 μmoles NAD, 10 μmoles 2-butanol
Procedure: The reaction mixtures 3 ml (1.0 mg protein) were incubated at 30°
^(a) Determined gas chromatographically.
^(b) Determined fluorescence spectrophotometrically.
consumption of NAD was corrected.

[15] = tested on: secondary alcohol dehydrogenase, crude extracts; settings: 2-butanol as a substrate; extracts of methanol-grown yeast; remark: listed apart in the source
Procedure: as §5, §6, §7

[16] = tested on: secondary alcohol dehydrogenase (SADH), cell-free soluble extract; settings: Growth Substrate CH3 OH; remark: listed apart in the source
Procedure: as §1, §2

[17] = tested on: secondary alcohol dehydrogenase, crude extracts; settings: 2-butanol as a substrate; extracts of methanol-grown yeast; remark: listed apart in the source
Procedure: as §5, §6, §7

[18] = tested on: secondary alcohol dehydrogenase (SADH), cell-free soluble extract; settings: Growth Substrate CH4; remark: listed apart in the source
Procedure: as §1, §2

[19] = tested on: secondary alcohol dehydrogenase, crude extracts; settings: 2-butanol as a substrate; extracts of methanol-grown yeast; remark: listed apart in the source
Procedure: as §5, §6, §7

[20] = tested on: secondary alcohol dehydrogenase (SADH), cell-free soluble extract; settings: Growth Substrate CH4; remark: listed apart in the source
Procedure: as §1, §2

[21] = tested on: secondary alcohol dehydrogenase (SADH), cell-free soluble extract; settings: Growth Substrate CH3 OH; remark: listed apart in the source
Procedure: as §1, §2

[22] = tested on: secondary alcohol dehydrogenase (SADH), cell-free soluble extract; settings: Growth Substrate CH3 OH; remark: listed apart in the source
Procedure: as §1, §2

[23] = tested on: secondary alcohol dehydrogenase (SADH), cell-free soluble extract; settings: Growth Substrate CH4; remark: listed apart in the source
Procedure: as §1, §2

[24] = tested on: secondary alcohol dehydrogenase (SADH), cell-free soluble extract; settings: Growth Substrate CH3 OH; remark: listed apart in the source
Procedure: as §1, §2

[25] = tested on: secondary alcohol dehydrogenase, crude extracts; settings: 2-butanol as a substrate; extracts of methanol-grown yeast; remark: listed apart in the source
Procedure: as §5, §6, §7

Structure (SMILES): CCC(C)O (centres unmarked) [2-Butanol, 2-butanol]
- Conversion Rate, 2-butanol to 2-butanone [1]: 0.5 nmoles/min/mg protein
- Conversion Rate, 2-butanol to 2-butanone [2]: 2.5 nmoles/min/mg protein
- conversion rates, 2-butanol to 2-butanone [3]: 5.8 μ moles/hr/mg. protein
- conversion rates, 2-butanol to 2-butanone [4]: 5.5 μ moles/hr/mg. protein
- conversion rates, 2-butanol to 2-butanone [5]: 6.0 μ moles/hr/mg. protein
- Conversion Rate, 2-butanol to 2-butanone ([6]; Growth Substrate CH3 OH): 2.0 nmoles/min/mg protein
- Conversion Rate, 2-butanol to 2-butanone ([6]; Growth Substrate CH4): 1.5 nmoles/min/mg protein
- Conversion Rate, 2-butanol to 2-butanone [7]: 2.6 nmoles/min/mg protein
- specific activities [8]: 62 nmoles NAD^+ reduced per min. per mg. protein
- Conversion Rate, 2-butanol to 2-butanone ([9]; Growth Substrate CH3 NH2): 20.0 nmoles/min/mg protein
- Conversion Rate, 2-butanol to 2-butanone ([9]; Growth Substrate CH3 OH): 23.2 nmoles/min/mg protein
- Conversion Rate, 2-butanol to 2-butanone ([9]; Growth Substrate HCOOCH3): 16.0 nmoles/min/mg protein
- Conversion Rate, 2-butanol to 2-butanone [10]: 15.0 nmoles/min/mg protein
- Conversion Rate, 2-butanol to 2-butanone [11]: 1.6 nmoles/min/mg protein
- Conversion Rate, 2-butanol to 2-butanone [12]: 2.0 nmoles/min/mg protein
- Conversion Rate, 2-butanol to 2-butanone [13]: 1.5 nmoles/min/mg protein
- 2-Butanol Consumed ([14]; Experiment 1: 10 min.): 260 nmol
- 2-Butanol Consumed ([14]; Experiment 2: 20 min.): 530 nmol
- specific activities [15]: 85 nmoles NAD^+ reduced per min. per mg. protein
- Conversion Rate, 2-butanol to 2-butanone [16]: 1.8 nmoles/min/mg protein
- specific activities [17]: 90 nmoles NAD^+ reduced per min. per mg. protein
- Conversion Rate, 2-butanol to 2-butanone [18]: 1.2 nmoles/min/mg protein
- specific activities [19]: 105 nmoles NAD^+ reduced per min. per mg. protein
- Conversion Rate, 2-butanol to 2-butanone [20]: 1.8 nmoles/min/mg protein
- Conversion Rate, 2-butanol to 2-butanone [21]: 3.0 nmoles/min/mg protein
- Conversion Rate, 2-butanol to 2-butanone [22]: 2.4 nmoles/min/mg protein
- Conversion Rate, 2-butanol to 2-butanone [23]: 1.4 nmoles/min/mg protein
- Conversion Rate, 2-butanol to 2-butanone [24]: 2.2 nmoles/min/mg protein
- specific activities [25]: 78 nmoles NAD^+ reduced per min. per mg. protein
